Laboratory results from ChEMBL document CHEMBL5046291, “Evodiamine-Inspired Topoisomerase-Histone Deacetylase Dual Inhibitors: Novel Orally Active Antitumor Agents for Leukemia Therapy” (J Med Chem, 2022).
The source made the active and inactive calls. The rule behind the calls is not given here.

Tests used:
[1] = target: T1, DNA topoisomerase 1 (Homo sapiens) (UniProt P11387); test: Inhibition of recombinant Top1 (unknown origin) assessed as inhibition of relaxation of supercoiled pBR322 plasmid DNA at 100 uM incubated for 15 mins by ethidium bromide staining based agarose gel electrophoresis analysis
T1 sequence (whole entry): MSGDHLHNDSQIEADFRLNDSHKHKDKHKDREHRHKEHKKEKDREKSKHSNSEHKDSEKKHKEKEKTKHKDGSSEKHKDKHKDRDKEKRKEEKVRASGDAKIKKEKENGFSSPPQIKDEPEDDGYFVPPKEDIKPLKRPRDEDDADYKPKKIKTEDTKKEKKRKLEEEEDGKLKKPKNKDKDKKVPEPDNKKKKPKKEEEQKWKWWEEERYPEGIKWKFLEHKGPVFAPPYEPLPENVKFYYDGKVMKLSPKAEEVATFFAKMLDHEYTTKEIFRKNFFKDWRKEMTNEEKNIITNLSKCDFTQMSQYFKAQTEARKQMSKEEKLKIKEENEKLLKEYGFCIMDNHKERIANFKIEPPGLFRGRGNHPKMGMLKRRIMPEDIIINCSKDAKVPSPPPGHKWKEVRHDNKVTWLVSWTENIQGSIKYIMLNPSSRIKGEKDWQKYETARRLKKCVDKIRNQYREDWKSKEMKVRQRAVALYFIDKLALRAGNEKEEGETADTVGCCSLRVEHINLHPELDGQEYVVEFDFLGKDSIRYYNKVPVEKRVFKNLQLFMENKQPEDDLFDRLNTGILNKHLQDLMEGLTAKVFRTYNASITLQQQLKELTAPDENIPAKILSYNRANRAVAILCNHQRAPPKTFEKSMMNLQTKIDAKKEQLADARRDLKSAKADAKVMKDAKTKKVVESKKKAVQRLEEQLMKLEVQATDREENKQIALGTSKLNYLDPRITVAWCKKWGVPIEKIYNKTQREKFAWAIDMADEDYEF

Histone deacetylase 1 = Histone deacetylase 1 (Homo sapiens, UniProt Q13547); test: Inhibition of full-length recombinant human HDAC1 expressed in Baculovirus expression system using Ac-Leu-Gly-Lys(Ac)-AMC as substrate preincubated for 5 mins followed by substrate addition and further incubated for 30 mins by fluorescence based microtiter plate reader assay
Sequence of Histone deacetylase 1 (Q13547 whole entry): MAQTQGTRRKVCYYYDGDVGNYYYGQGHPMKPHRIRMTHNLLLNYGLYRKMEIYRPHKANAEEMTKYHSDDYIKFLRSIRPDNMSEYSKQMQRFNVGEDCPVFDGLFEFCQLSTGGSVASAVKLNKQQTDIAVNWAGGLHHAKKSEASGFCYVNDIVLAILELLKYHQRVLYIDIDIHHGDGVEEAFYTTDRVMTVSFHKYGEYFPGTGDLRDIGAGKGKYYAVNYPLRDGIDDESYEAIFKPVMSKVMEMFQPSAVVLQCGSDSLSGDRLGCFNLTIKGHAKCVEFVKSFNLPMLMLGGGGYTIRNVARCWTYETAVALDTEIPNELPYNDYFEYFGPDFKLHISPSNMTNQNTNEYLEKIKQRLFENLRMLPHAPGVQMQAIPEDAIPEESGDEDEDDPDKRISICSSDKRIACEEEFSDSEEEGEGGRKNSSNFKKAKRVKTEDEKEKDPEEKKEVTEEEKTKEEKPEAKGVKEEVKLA

MCF7 = test: Antiproliferative activity against human MCF7 cells assessed as cell growth inhibition incubated for 8 hrs by CCK8 assay; type: functional, cell-based; settings: MCF7, 8 h
A549 = test: Antiproliferative activity against human A549 cells assessed as cell growth inhibition incubated for 8 hrs by CCK8 assay; type: functional, cell-based; settings: A549, 8 h
HCT-116 = test: Antiproliferative activity against human HCT-116 cells assessed as cell growth inhibition incubated for 8 hrs by CCK8 assay; type: functional, cell-based; settings: HCT-116, 8 h
HepG2 = test: Antiproliferative activity against human HepG2 cells assessed as cell growth inhibition incubated for 8 hrs by CCK8 assay; type: functional, cell-based; settings: HepG2, 8 h
K562 = test: Antiproliferative activity against human K562 cells assessed as cell growth inhibition incubated for 8 hrs by CCK8 assay; type: functional, cell-based; settings: K562, 8 h
HEL = test: Antiproliferative activity against HEL cells assessed as cell growth inhibition incubated for 8 hrs by CCK8 assay; type: functional, cell-based; settings: Homo sapiens
[2] = target: DNA topoisomerase 2-alpha (Homo sapiens) (UniProt P11388); test: Inhibition of recombinant Top2 (unknown origin) assessed as inhibition of relaxation of supercoiled pBR322 plasmid DNA at 100 uM incubated for 15 mins by ethidium bromide staining based agarose gel electrophoresis analysis
Sequence of DNA topoisomerase 2-alpha (Homo sapiens) (P11388 whole entry): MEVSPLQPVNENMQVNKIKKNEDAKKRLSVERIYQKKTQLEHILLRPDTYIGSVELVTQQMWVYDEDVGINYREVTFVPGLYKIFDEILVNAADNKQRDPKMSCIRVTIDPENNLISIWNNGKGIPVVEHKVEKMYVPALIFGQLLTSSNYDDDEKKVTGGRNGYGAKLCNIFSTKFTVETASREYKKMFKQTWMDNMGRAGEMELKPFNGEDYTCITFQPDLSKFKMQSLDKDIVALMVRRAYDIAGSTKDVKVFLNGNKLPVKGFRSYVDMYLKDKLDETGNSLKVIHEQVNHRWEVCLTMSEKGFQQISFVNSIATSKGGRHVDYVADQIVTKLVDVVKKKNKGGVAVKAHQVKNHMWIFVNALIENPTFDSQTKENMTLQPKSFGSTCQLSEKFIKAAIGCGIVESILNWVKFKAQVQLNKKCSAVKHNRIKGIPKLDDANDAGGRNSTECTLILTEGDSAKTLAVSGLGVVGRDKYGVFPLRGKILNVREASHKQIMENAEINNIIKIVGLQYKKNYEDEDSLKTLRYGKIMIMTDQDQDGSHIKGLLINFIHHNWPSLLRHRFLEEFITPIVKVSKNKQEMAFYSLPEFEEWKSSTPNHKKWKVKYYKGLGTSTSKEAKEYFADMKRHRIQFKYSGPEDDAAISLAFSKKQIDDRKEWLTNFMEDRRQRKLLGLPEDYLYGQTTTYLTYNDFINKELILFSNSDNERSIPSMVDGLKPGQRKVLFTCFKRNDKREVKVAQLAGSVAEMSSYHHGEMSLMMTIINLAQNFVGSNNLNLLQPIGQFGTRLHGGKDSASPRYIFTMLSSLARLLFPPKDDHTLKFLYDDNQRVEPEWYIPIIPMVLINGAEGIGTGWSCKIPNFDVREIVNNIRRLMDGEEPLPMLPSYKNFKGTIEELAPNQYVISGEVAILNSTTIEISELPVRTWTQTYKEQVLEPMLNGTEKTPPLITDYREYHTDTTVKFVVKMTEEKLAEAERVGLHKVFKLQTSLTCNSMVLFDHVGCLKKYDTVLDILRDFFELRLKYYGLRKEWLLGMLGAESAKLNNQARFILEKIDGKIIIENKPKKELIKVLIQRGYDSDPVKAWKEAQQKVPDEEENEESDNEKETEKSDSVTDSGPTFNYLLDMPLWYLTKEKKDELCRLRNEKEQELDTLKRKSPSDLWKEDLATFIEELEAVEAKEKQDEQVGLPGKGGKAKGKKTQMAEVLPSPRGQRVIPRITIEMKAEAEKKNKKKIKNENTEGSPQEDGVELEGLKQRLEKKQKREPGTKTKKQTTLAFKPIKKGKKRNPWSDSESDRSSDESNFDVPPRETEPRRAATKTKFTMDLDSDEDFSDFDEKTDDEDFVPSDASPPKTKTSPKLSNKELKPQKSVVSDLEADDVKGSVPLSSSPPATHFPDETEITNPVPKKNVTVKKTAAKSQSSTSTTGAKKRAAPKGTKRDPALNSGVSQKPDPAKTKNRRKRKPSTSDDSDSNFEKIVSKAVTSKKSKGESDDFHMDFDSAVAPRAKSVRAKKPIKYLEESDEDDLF

[3] = target: DNA topoisomerase 2-alpha (Homo sapiens) (UniProt P11388); test: Inhibition of recombinant Top2 (unknown origin) assessed as inhibition of relaxation of supercoiled pBR322 plasmid DNA at 50 uM incubated for 15 mins by ethidium bromide staining based agarose gel electrophoresis analysis

Compound	inhibition [1]	IC50 (Histone deacetylase 1) [nM]	IC50 (MCF7) [nM]	IC50 (A549) [nM]	IC50 (HCT-116) [nM]	IC50 (HepG2) [nM]	IC50 (K562) [nM]	inhibition [2]	inhibition [3]	IC50 (HEL) [nM]
CN1c2ccc(F)cc2C(=O)N2CCc3c([nH]c4ccc(OCc5cccc(C(=O)Nc6ccccc6N)c5)cc34)C21 (stereo not drawn)	inactive	3600	> 2000	1320	> 2000	420	1380	–	–	660
CN1c2ccc(F)cc2C(=O)N2CCc3c([nH]c4ccc(OCCCCCCCC(=O)NO)cc34)C21 (stereo not drawn)	Active	150	> 2000	1580	> 2000	> 2000	> 2000	inactive	–	1580
CN1c2ccc(F)cc2C(=O)N2CCc3c([nH]c4ccc(OCCCC(=O)Nc5ccccc5N)cc34)C21 (stereo not drawn)	inactive	2200	52000	1250	1030	160	280	–	–	350
CN1c2ccc(F)cc2C(=O)N2CCc3c([nH]c4ccc(OCCCCCC(=O)Nc5ccccc5N)cc34)C21 (stereo not drawn)	inactive	320	> 2000	720	> 2000	> 2000	1200	–	–	1100
CN1c2ccc(F)cc2C(=O)N2CCc3c([nH]c4ccc(OCc5cccc(C(=O)NO)c5)cc34)C21 (stereo not drawn)	Active	1900	> 2000	> 2000	> 2000	1620	> 2000	Active	Active	580
CN1c2ccc(F)cc2C(=O)N2CCc3c([nH]c4ccc(OCc5ccc(C(=O)Nc6ccccc6N)cc5)cc34)C21 (stereo not drawn)	Active	31	1910	> 2000	> 2000	125000	250	–	–	44
CN1c2ccc(F)cc2C(=O)N2CCc3c([nH]c4ccc(OCc5ccc(CC(=O)NO)cc5)cc34)C21 (stereo not drawn)	Active	360	> 2000	> 2000	> 2000	520	180	Active	Active	100

The next compounds have a lower IC50 (MCF7) than those just listed; values first:

inhibition [1]	IC50 (Histone deacetylase 1) [nM]	IC50 (MCF7) [nM]	IC50 (A549) [nM]	IC50 (HCT-116) [nM]	IC50 (HepG2) [nM]	IC50 (K562) [nM]	inhibition [2]	inhibition [3]	Compound	IC50 (HEL) [nM]
inactive	21	1560	330	> 2000	810	410	Active	Active	CN1c2ccc(F)cc2C(=O)N2CCc3c([nH]c4ccc(OCCCCC(=O)NO)cc34)C21 (stereo not drawn)	580
inactive	2100	1260	820	600	1250	> 2000	–	–	CN1c2ccc(F)cc2C(=O)N2CCc3c([nH]c4ccc(OCCCCC(=O)Nc5ccccc5N)cc34)C21 (stereo not drawn)	720
Active	2200	1230	> 2000	> 2000	> 2000	550	Active	Active	CN1c2ccc(F)cc2C(=O)N2CCc3c([nH]c4ccc(OCCCC(=O)NO)cc34)C21 (stereo not drawn)	270
Active	25	830	810	> 2000	1260	1380	Active	Active	CN1c2ccc(F)cc2C(=O)N2CCc3c([nH]c4ccc(OCCCCCCC(=O)Nc5ccccc5N)cc34)C21 (stereo not drawn)	1850
Active	6100	800	1210	150	120	86	Active	Active	CN1c2ccc(F)cc2C(=O)N2CCc3c([nH]c4ccc(OCc5ccccc5C(=O)NO)cc34)C21 (stereo not drawn)	290
inactive	1900	420	830	220	440	920	–	–	CN1c2ccc(F)cc2C(=O)N2CCc3c([nH]c4ccc(OCc5ccccc5C(=O)Nc5ccccc5N)cc34)C21 (stereo not drawn)	820
Active	3	210	630	830	200	> 2000	Active	Active	CN1c2ccc(F)cc2C(=O)N2CCc3c([nH]c4ccc(OCCCCCCC(=O)NO)cc34)C21 (stereo not drawn)	> 2000
inactive	32	160	> 2000	500	98	250	Active	Active	CN1c2ccc(F)cc2C(=O)N2CCc3c([nH]c4ccc(OCc5ccc(C(=O)NO)cc5)cc34)C21 (stereo not drawn)	> 2000
inactive	4	150	300	120	210	670	Active	Active	CN1c2ccc(F)cc2C(=O)N2CCc3c([nH]c4ccc(OCCCCCC(=O)NO)cc34)C21 (stereo not drawn)	100
–	–	140	8300	970	3300	910	–	–	CC[C@@]1(O)C(=O)OCc2c1cc1n(c2=O)Cc2cc3c(CN(C)C)c(O)ccc3nc2-1 [TOPOTECAN]	26000
